Laboratory results taken from PMC9343605, “Structural insights into ligand recognition and selectivity of somatostatin receptors” (Cell Research, 2022).
Each block holds one molecule with its values, some of them ahead of it.

How the values were obtained:
SSTR2 [1] = target: T1, SSTR2 (Homo sapiens, UniProt P30874, Q126A); assay: Whole cell binding assay, SSTR2, competition with 125I-Tyr11-SST14, CHO-K1; conditions: for Emax: CHO-K1, read-out: Span;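 as to all read-outs here: Cell-bound radioactivity in lysed CHO-K1 cells read by scintillation counting, each mutation introduced singly into the WT receptor, at least three independent experiments run in technical triplicate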
Description: (§1) For SSTR2 and SSTR4, CHO-K1 cells were cultured in F12 medium with 10% FBS and seeded at a density of 30,000 cells/well in Isoplate-96 plates (PerkinElmer). Twenty-four hours after transfection with the WT or mutant SSTR2/SSTR4, CHO-K1 cells were washed twice and incubated with blocking buffer (F12 supplemented with 25 mM HEPES and 0.1% (w/v) BSA, pH 7.4) for 2 h at 37 °C. […] Following incubation, cells were washed three times with ice-cold PBS and lysed by 50 μL lysis buffer (PBS supplemented with 20 mM Tris-HCl, 1% Triton X-100, pH 7.4). The radioactivity was subsequently counted (counts/min, CPM) in a scintillation counter (MicroBeta[2] Plate Counter, PerkinElmer) using a scintillation cocktail (OptiPhaseSuperMix, PerkinElmer). Data were analyzed by nonlinear regression using GraphPad PRISM 8.
(§2) aMutants represent that all mutations were introduced separately into the WT receptors
and expressed in CHO K1 cells.
(§3) bThe IC50 ratio was shown as IC50(mutant)/IC50(WT), indicating the shift between the WT
(§4) and mutant curves, reflecting the effect of the mutations on ligand binding.
(§5) cData are shown as mean ± S.E.M. form at least three independent experiments
(§6) performed in technical triplicate. One-way ANOVA was performed followed by
(§7) Dunnett’s post-test and compared with WT.
(§8) d The span is defined as the window between the maximal agonists response (Emax) and
(§9) e Sample size; the number of independent experiments performed in technical triplicate.

SSTR2 [2] = target: T2, SSTR2 (Homo sapiens, UniProt P30874, F272A); assay: as above; conditions: for Emax: CHO-K1, read-out: Span
Description: as §1, §2
and expressed in CHO K1 cells.
as §3, §4, §5, §6, §7, §8, §9

SSTR2 [3] = target: SSTR2 (Homo sapiens, UniProt P30874, S42A); assay: as above
Description: as §1, §2
and expressed in CHO K1 cells.
as §3, §4, §5, §6, §7, §8, §9

SSTR2 [4] = target: SSTR2 (Homo sapiens, UniProt P30874, N43A); assay: as above
Description: as §1, §2
and expressed in CHO K1 cells.
as §3, §4, §5, §6, §7, §8, §9

SSTR2 [5] = target: T3, SSTR2 (Homo sapiens, UniProt P30874, D122A); assay: as above; conditions: CHO-K1, read-out: Span
Description: as §1, §2
and expressed in CHO K1 cells.
as §3, §4, §5, §6, §7, §8, §9

SSTR2 [6] = target: T4, SSTR2 (Homo sapiens, UniProt P30874, Y302A); assay: as above; conditions: CHO-K1, read-out: Span
Description: as §1, §2
and expressed in CHO K1 cells.
as §3, §4, §5, §6, §7, §8, §9

SSTR2 [7] = target: SSTR2 (Homo sapiens, UniProt P30874, D295A); assay: as above
Description: as §1, §2
and expressed in CHO K1 cells.
as §3, §4, §5, §6, §7, §8, §9

SSTR2 [8] = target: T5, SSTR2 (Homo sapiens, UniProt P30874, F294A); assay: as above; conditions: for Emax: CHO-K1, read-out: Span
Description: as §1, §2
and expressed in CHO K1 cells.
as §3, §4, §5, §6, §7, §8, §9

SSTR2 [9] = target: T6, SSTR2 (Homo sapiens, UniProt P30874); assay: as above; conditions: for Emax: CHO-K1, read-out: Span
Description: as §1, §2
and expressed in CHO K1 cells.
as §3, §4, §5, §6, §7, §8, §9

SSTR2 [10] = target: SSTR2 (Homo sapiens, UniProt P30874, F275A); assay: as above; conditions: for Emax: CHO-K1, read-out: Span
Description: as §1, §2
and expressed in CHO K1 cells.
as §3, §4, §5, §6, §7, §8, §9

SSTR2 [11] = target: T7, SSTR2 (Homo sapiens, UniProt P30874, Q102A); assay: as above; conditions: for Emax: CHO-K1, read-out: Span
Description: as §1, §2
and expressed in CHO K1 cells.
as §3, §4, §5, §6, §7, §8, §9

SSTR2 [12] = target: SSTR2 (Homo sapiens, UniProt P30874, Y205A); assay: as above; conditions: CHO-K1, read-out: Span
Description: as §1, §2
and expressed in CHO K1 cells.
as §3, §4, §5, §6, §7, §8, §9

SSTR2 [13] = target: T8, SSTR2 (Homo sapiens, UniProt P30874, N276A); assay: cAMP accumulation assay (agonist-induced inhibition of forskolin-stimulated cAMP), SSTR2, HEK293F; format: cell-based; conditions: HEK293F; SSTR2 mutant N276^6.55A; mean ± SEM; read-out: Span;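 also: transiently transfected cells exposed to 2 µM forskolin and a ligand concentration series for 40 min at room temperature in IBMX-containing HBSS, then cAMP quantified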
T8 construct: expressed in transfected cells; host or cells: HEK293F
Description: (§10) HEK293F cells were transiently transfected with WT or mutant SSTR2/SSTR4 using transfection reagent (PEI MAX 2000, Polysciences) and incubated at 37 °C in 5% CO2. Forty-eight hours after transfection, cells were centrifuged and resuspended in stimulation buffer (Hanks’ balanced salt solution (HBSS) supplemented with 5 mM HEPES, 0.5 mM IBMX and 0.1% (w/v) bovine serum albumin (BSA), pH 7.4) to a density of 200,000 cells/mL and added to 384-well white plates (PerkinElmer, 1000 cells/well). cAMP accumulation was measured by a LANCE Ultra cAMP kit (PerkinElmer) according to the manufacturer’s instructions. In brief, transfected cells were incubated for 40 min in stimulation buffer with 2.5 μL forskolin (SSTR2: 2 μM; SSTR4: 4 μM) and gradient concentration of ligand at RT. The reactions were stopped by addition of lysis buffer containing 5 μL Eu-cAMP tracer and 5 μL ULight-anti-cAMP. Plates were then incubated for 60 min at RT and time-resolved FRET signals were measured at 620 nm and 665 nm by an EnVision multilabel plate reader (PerkinElmer). Data were analyzed in GraphPad PRISM 8 and all values were normalized to the WT for each ligand. All outcomes were repeated at least three times.
(§11) aMutants represent that mutations were introduced separately into the WT receptors and
(§12) transiently expressed in HEK 293F cells.
(§13) bThe EC50 ratio was shown as EC50(mutant)/EC50(WT), indicating the shift between the WT
(§14) and mutant curves, reflecting the effect of the mutations on receptor signaling.
(§15) cData are shown as mean ± S.E.M. from at least three independent experiments
as §6
(§16) Dunnett’s post-test and compared with WT. The P value was defined as: *P<0.05;
as §8, §9
(§17) f Receptor expression level of HEK 293F cells was determined independently by flow
(§18) cytometry with anti-FLAG antibody and shown as per cent compared to the WT.

SSTR2 [14] = target: T9, SSTR2 (Homo sapiens, UniProt P30874, K291A); assay: as above; format: cell-based; conditions: HEK293F; SSTR2 mutant K291^7.32A; mean ± SEM; read-out: Span
T9 construct: expressed in transfected cells; host or cells: HEK293F
Description: as §10, §11, §12, §13, §14, §15, §6, §16, §8, §9, §17, §18

SSTR2 [15] = target: T10, SSTR2 (Homo sapiens, UniProt P30874, F294N); assay: as above; format: cell-based; conditions: HEK293F; SSTR2 mutant F294^7.35N; mean ± SEM; read-out: Span
T10 construct: expressed in transfected cells; host or cells: HEK293F
Description: as §10, §11, §12, §13, §14, §15, §6, §16, §8, §9, §17, §18

SSTR2 [16] = target: T11, SSTR2 (Homo sapiens, UniProt P30874, I284A); assay: as above; format: cell-based; conditions: HEK293F; SSTR2 mutant I284^ECL3A; mean ± SEM; read-out: Span
T11 construct: expressed in transfected cells; host or cells: HEK293F
Description: as §10, §11, §12, §13, §14, §15, §6, §16, §8, §9, §17, §18

SSTR2 [17] = target: T12, SSTR2 (Homo sapiens, UniProt P30874, S192A); assay: as above; format: cell-based; conditions: HEK293F; SSTR2 mutant S192^ECL2A; mean ± SEM; read-out: Span
T12 construct: expressed in transfected cells; host or cells: HEK293F
Description: as §10, §11, §12, §13, §14, §15, §6, §16, §8, §9, §17, §18

SSTR2 [18] = target: T13, SSTR2 (Homo sapiens, UniProt P30874, F208A); assay: as above; format: cell-based; conditions: HEK293F; SSTR2 mutant F208^5.38A; mean ± SEM; read-out: Span
T13 construct: expressed in transfected cells; host or cells: HEK293F
Description: as §10, §11, §12, §13, §14, §15, §6, §16, §8, §9, §17, §18

SSTR2 [19] = target: T14, SSTR2 (Homo sapiens, UniProt P30874, P286A); assay: as above; format: cell-based; conditions: HEK293F; SSTR2 mutant P286^ECL3A; mean ± SEM; read-out: Span
T14 construct: expressed in transfected cells; host or cells: HEK293F
Description: as §10, §11, §12, §13, §14, §15, §6, §16, §8, §9, §17, §18

SSTR2 [20] = target: T15, SSTR2 (Homo sapiens, UniProt P30874, V298A); assay: as above; format: cell-based; conditions: HEK293F; SSTR2 mutant V298^7.39A; mean ± SEM; read-out: Span
T15 construct: expressed in transfected cells; host or cells: HEK293F
Description: as §10, §11, §12, §13, §14, §15, §6, §16, §8, §9, §17, §18

SSTR2 [21] = target: T16, SSTR2 (Homo sapiens, UniProt P30874, Y205W); assay: as above; format: cell-based; conditions: HEK293F; SSTR2 mutant Y205^5.35W; mean ± SEM; read-out: Span
T16 construct: expressed in transfected cells; host or cells: HEK293F
Description: as §10, §11, §12, §13, §14, §15, §6, §16, §8, §9, §17, §18

SSTR2 [22] = target: T1, SSTR2; assay: as above; format: cell-based; design: expressed in transfected cells; host or cells: HEK293F; conditions: HEK293F; SSTR2 mutant Q126^3.36A; mean ± SEM; read-out: Span
Description: as §10, §11, §12, §13, §14, §15, §6, §16, §8, §9, §17, §18

SSTR2 [23] = target: T2, SSTR2; assay: as above; format: cell-based; design: expressed in transfected cells; host or cells: HEK293F; conditions: HEK293F; SSTR2 mutant F272^6.51A; mean ± SEM; read-out: Span
Description: as §10, §11, §12, §13, §14, §15, §6, §16, §8, §9, §17, §18

SSTR2 [24] = target: SSTR2 (Homo sapiens, UniProt P30874, T194A); assay: as above; format: cell-based; design: expressed in transfected cells; host or cells: HEK293F; conditions: HEK293F; SSTR2 mutant T194^ECL2A; mean ± SEM; read-out: Span
Description: as §10, §11, §12, §13, §14, §15, §6, §16, §8, §9, §17, §18

SSTR2 [25] = target: SSTR2 (Homo sapiens, UniProt P30874, T212A); assay: as above; format: cell-based; design: expressed in transfected cells; host or cells: HEK293F; conditions: HEK293F; SSTR2 mutant T212^5.42A; mean ± SEM; read-out: Span
Description: as §10, §11, §12, §13, §14, §15, §6, §16, §8, §9, §17, §18

SSTR2 [26] = target: T3, SSTR2; assay: as above; format: cell-based; design: expressed in transfected cells; host or cells: HEK293F; conditions: HEK293F; SSTR2 mutant D122^3.32A; mean ± SEM; read-out: Span
Description: as §10, §11, §12, §13, §14, §15, §6, §16, §8, §9, §17, §18

SSTR2 [27] = target: T4, SSTR2; assay: as above; format: cell-based; design: expressed in transfected cells; host or cells: HEK293F; conditions: HEK293F; SSTR2 mutant Y302^7.43A; mean ± SEM; read-out: Span
Description: as §10, §11, §12, §13, §14, §15, §6, §16, §8, §9, §17, §18

SSTR2 [28] = target: T5, SSTR2; assay: as above; format: cell-based; design: expressed in transfected cells; host or cells: HEK293F; conditions: HEK293F; SSTR2 mutant F294^7.35A; mean ± SEM; read-out: Span
Description: as §10, §11, §12, §13, §14, §15, §6, §16, §8, §9, §17, §18

SSTR2 [29] = target: T6, SSTR2; assay: as above; format: cell-based; design: expressed in transfected cells; host or cells: HEK293F; conditions: HEK293F; WT SSTR2; window between Emax and vehicle; mean ± SEM; read-out: Span
Description: as §10, §11, §12, §13, §14, §15, §6, §16, §8, §9, §17, §18

SSTR2 [30] = target: T7, SSTR2; assay: as above; format: cell-based; design: expressed in transfected cells; host or cells: HEK293F; conditions: HEK293F; SSTR2 mutant Q102^2.63A; mean ± SEM; read-out: Span
Description: as §10, §11, §12, §13, §14, §15, §6, §16, §8, §9, §17, §18

T2 sequence (P30874 whole entry F272A): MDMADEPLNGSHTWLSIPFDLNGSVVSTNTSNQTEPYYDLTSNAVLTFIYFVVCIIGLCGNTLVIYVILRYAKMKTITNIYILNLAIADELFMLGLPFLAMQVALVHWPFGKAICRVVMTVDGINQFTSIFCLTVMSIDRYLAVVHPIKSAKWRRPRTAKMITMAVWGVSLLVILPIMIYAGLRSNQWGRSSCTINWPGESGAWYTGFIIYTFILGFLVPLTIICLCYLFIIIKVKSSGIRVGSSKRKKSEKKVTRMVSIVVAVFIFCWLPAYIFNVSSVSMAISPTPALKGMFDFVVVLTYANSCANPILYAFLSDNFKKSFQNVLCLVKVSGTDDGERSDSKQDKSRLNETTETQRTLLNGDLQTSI
T3 sequence (P30874 whole entry D122A): as the sequence (P30874 whole entry F272A) above, with D122A, A272F counted along it
T1 sequence (P30874 whole entry Q126A): as the sequence (P30874 whole entry F272A) above, with Q126A, A272F counted along it
T5 sequence (P30874 whole entry F294A): as the sequence (P30874 whole entry F272A) above, with A272F, F294A counted along it
Chain of SSTR2 (Homo sapiens, UniProt P30874, F275A) (P30874 whole entry F275A): as the sequence (P30874 whole entry F272A) above, with A272F, F275A counted along it
T6 sequence (P30874 whole entry): as the sequence (P30874 whole entry F272A) above, with A272F counted along it
T4 sequence (P30874 whole entry Y302A): as the sequence (P30874 whole entry F272A) above, with A272F, Y302A counted along it
T7 sequence (P30874 whole entry Q102A): as the sequence (P30874 whole entry F272A) above, with Q102A, A272F counted along it
Chain of SSTR2 (Homo sapiens, UniProt P30874, N43A) (P30874 whole entry N43A): as the sequence (P30874 whole entry F272A) above, with N43A, A272F counted along it
Chain of SSTR2 (Homo sapiens, UniProt P30874, D295A) (P30874 whole entry D295A): as the sequence (P30874 whole entry F272A) above, with A272F, D295A counted along it
Chain of SSTR2 (Homo sapiens, UniProt P30874, S42A) (P30874 whole entry S42A): as the sequence (P30874 whole entry F272A) above, with S42A, A272F counted along it
T9 sequence (P30874 whole entry K291A): as the sequence (P30874 whole entry F272A) above, with A272F, K291A counted along it
Chain of SSTR2 (Homo sapiens, UniProt P30874, T212A) (P30874 whole entry T212A): as the sequence (P30874 whole entry F272A) above, with T212A, A272F counted along it
T14 sequence (P30874 whole entry P286A): as the sequence (P30874 whole entry F272A) above, with A272F, P286A counted along it
T16 sequence (P30874 whole entry Y205W): as the sequence (P30874 whole entry F272A) above, with Y205W, A272F counted along it
Chain of SSTR2 (Homo sapiens, UniProt P30874, Y205A) (P30874 whole entry Y205A): as the sequence (P30874 whole entry F272A) above, with Y205A, A272F counted along it
T11 sequence (P30874 whole entry I284A): as the sequence (P30874 whole entry F272A) above, with A272F, I284A counted along it
T13 sequence (P30874 whole entry F208A): as the sequence (P30874 whole entry F272A) above, with F208A, A272F counted along it
T10 sequence (P30874 whole entry F294N): as the sequence (P30874 whole entry F272A) above, with A272F, F294N counted along it
T12 sequence (P30874 whole entry S192A): as the sequence (P30874 whole entry F272A) above, with S192A, A272F counted along it
T15 sequence (P30874 whole entry V298A): as the sequence (P30874 whole entry F272A) above, with A272F, V298A counted along it
Chain of SSTR2 (Homo sapiens, UniProt P30874, T194A) (P30874 whole entry T194A): as the sequence (P30874 whole entry F272A) above, with T194A, A272F counted along it
T8 sequence (P30874 whole entry N276A): as the sequence (P30874 whole entry F272A) above, with A272F, N276A counted along it

SMILES: CC(=O)N[C@@H](Cc1ccc([N+](=O)[O-])cc1)C(=O)N[C@@H]1CSSC[C@@H](C(=O)N[C@H](Cc2ccc(O)cc2)C(N)=O)NC(=O)[C@H]([C@@H](C)O)NC(=O)[C@H](CCCCN)NC(=O)[C@@H](Cc2c[nH]c3ccccc23)NC(=O)[C@H](Cc2ccc(O)cc2)NC1=O [CYN 154806]
IC50 (SSTR2 [1]): 0.135 µM
Emax (SSTR2 [1]): 25 ± 4%
IC50 (SSTR2 [2]): 0.0234 µM
Emax (SSTR2 [2]): 21 ± 6%
IC50 (SSTR2 [3]): 0.00275 µM
Emax (SSTR2 [3]; CHO-K1, read-out: Span): 145 ± 9%
IC50 (SSTR2 [4]): 0.00813 µM
Emax (SSTR2 [4]; CHO-K1, read-out: Span): 96 ± 8%
Emax (SSTR2 [5]): 20 ± 2%
Emax (SSTR2 [6]): 15 ± 5%
IC50 (SSTR2 [7]): 0.00355 µM
Emax (SSTR2 [7]; CHO-K1, read-out: Span): 62 ± 6%
IC50 (SSTR2 [8]): 0.0219 µM
Emax (SSTR2 [8]): 36 ± 6%
IC50 (SSTR2 [9]): 0.00437 µM
Emax (SSTR2 [9]): 100 ± 6%
IC50 (SSTR2 [10]): 0.0219 µM
Emax (SSTR2 [10]): 69 ± 7%
IC50 (SSTR2 [11]): 0.0204 µM
Emax (SSTR2 [11]): 24 ± 5%

Emax (SSTR2 [1]): 16 ± 8%
Emax (SSTR2 [2]): 26 ± 6%
Emax (SSTR2 [12]): 60 ± 5%
Emax (SSTR2 [5]): 16 ± 7%
Emax (SSTR2 [6]): 18 ± 7%
Emax (SSTR2 [8]): 28 ± 9%
Emax (SSTR2 [9]): 100 ± 7%
Emax (SSTR2 [10]): 51 ± 4%
Emax (SSTR2 [11]): 27 ± 4%
Emax (SSTR2 [13]): 75 ± 9%
Emax (SSTR2 [14]): 103 ± 8%
Emax (SSTR2 [15]): 47 ± 9%
Emax (SSTR2 [16]): 58 ± 8%
Emax (SSTR2 [17]): 146 ± 13%
Emax (SSTR2 [18]): 128 ± 8%
Emax (SSTR2 [19]): 72 ± 8%
Emax (SSTR2 [20]): 127 ± 4%
Emax (SSTR2 [21]): 97 ± 10%
Emax (SSTR2 [22]): 101 ± 7%
Emax (SSTR2 [23]): 134 ± 17%
Emax (SSTR2 [24]): 125 ± 7%
Emax (SSTR2 [25]): 90 ± 10%
Emax (SSTR2 [26]): 16 ± 4%
Emax (SSTR2 [27]): 147 ± 12%
Emax (SSTR2 [28]): 123 ± 10%
Emax (SSTR2 [29]): 100 ± 4%
Emax (SSTR2 [30]): 30 ± 5%
SMILES: C[C@@H](O)[C@@H]1NC(=O)[C@H](CCCCN)NC(=O)[C@@H](Cc2c[nH]c3ccccc23)NC(=O)[C@H](Cc2ccccc2)NC(=O)[C@@H](NC(=O)[C@H](N)Cc2ccccc2)CSSC[C@@H](C(=O)N[C@H](CO)[C@@H](C)O)NC1=O [Octreotide]
